# In paper PMC12528448, “Resistance to CDK7 inhibitors directed by acquired mutation of a conserved residue in cancer cells” (The EMBO Journal, 2025):
# Where “and” joins values, the source holds several entries; their conditions need not be identical. Identical values can stand only once.
# Columns and labels:
# [1] = tested on: 22Rv1 cells; assay: Growth assay (SRB), 22Rv1; type: cell-based, human
# How it was run: (§1)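 SRB: dosing at day 2 post-seed, rising concentrations, 4 d incubation, IC50 via non-linear fit. IncuCyte: drug at day 2, confluency read q6h, doubling time from exponential curve fit.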
# [2] = tested on: MCF7 cells; assay: Growth assay (SRB), MCF7; type: cell-based, human; conditions: for % Growth: biological reps
# How it was run: as §1
# [3] = tested on: 22Rv1-CDK7-D97N cells; assay: Growth assay (SRB), 22Rv1 CDK7-D97N knock-in pool; type: cell-based, human; conditions: for % Growth: 22Rv1 CDK7 D99N
# Procedure: (§2) To determine the IC50 of drug treatments on growth, cells were seeded in 96-well culture plates. Two days after seeding, the cells were treated with increasing concentrations of drugs and incubated for 4 days. Cell number was determined using the SRB assay (Skehan et al, [1990]), and IC50 values were calculated using non-linear regression curve fitting in GraphPad Prism v10. For all other growth experiments, cells were seeded into 96-well plates, and appropriate drugs were added 2 days after seeding. Cells were then incubated in an IncuCyte Zoom live-cell imager, with cell confluency measured every 6 h. Cell doubling times were determined by non-linear curve fitting (exponential growth equation) in GraphPad Prism v10.
# (§3) Alt-R^TM S.p. Cas9 nuclease V3, Alt-R CRISPR-Cas9 crRNA, TracrRNA and the donor templates were obtained from Integrated DNA Technologies. […] Cells were treated with 0.7 µM of Alt-R HDR Enhancer V2 to improve HRD efficiency. Sequences of the CRISPRs in the crRNA and the donor templates are shown in the Reagents and tools table. Donor templates were designed to include non-coding substitutions to aid genome DNA PCR for identifying knock-in events and to facilitate cloning; these substitutions are noted in the Reagents and tools table.
# [4] = tested on: LNCaP cells; assay: Growth assay (SRB), LNCaP; type: cell-based, human
# Procedure: as §2
# [5] = tested on: LNCaP-CDK7-D97N cells; assay: Growth assay (SRB), LNCaP CDK7-D97N knock-in; type: cell-based, human; conditions: for % Growth: LNCaP CDK7 D99N
# Procedure: as §2, §3
# [6] = target: T1, CDK7-D97N (Homo sapiens, UniProt P50613, D97N); assay: NanoBRET Target Engagement assay, K-10 tracer displacement in HEK293 cells; type: binding; conditions: for % Occupacy: CDK7 D97N, replicates N1-N3
# T1 construct: expressed in transfected cells; host or cells: HEK293
# Procedure: (§4) Energy transfer between the NanoLuc fusion protein and a cell-permeable fluorescent energy transfer probe facilitates quantitative determination of target engagement in live cells (Wells et al, [2020]). Assays were conducted according to this previous report, using the optimal CDK7 probe, K-10, at a concentration of 0.5 µM.
# (§5) CDK4, CDK6 and CDK7 and the respective mutant sequences, obtained as synthesised DNA fragments from IDT (Leuven), were cloned by HiFi DNA assembly (New England Biolabs) into the pNLF1-N NanoLuc protein fusion vector (Promega). HEK293 cells, transiently transfected with NanoLuc-CDK fusion constructs, were used for activity determination, utilising the NanoBRET Target Engagement Intracellular Kinase Assay. A CCND1 expression construct was co-transfected with the NanoLuc-CDK4 and NanoLuc-CDK6 fusion constructs. The recommended cell-permeable energy transfer probe, K-10, was used to assess target engagement, as detailed in the manufacturer’s methods (Promega). […] The BRET ratio (mBU) was calculated as acceptor emission (590–610 nm)/donor emission (410–490 nm) × 1000. The mBU values were plotted against the energy probe concentrations to determine maximal binding (Bmax) and Kd values. BRET signal competition by CDK inhibitors was used to determine compound binding to WT and mutant CDKs. […] Inhibitor binding was determined using a fourfold dilution series. mBU values were plotted against test compound concentrations in the presence of K10 tracer. EC50 values were determined using nonlinear regression curve-fitting. Test compound occupancy (%) was calculated using the equation [1 − (x − z)/(y − z)] × 100, where x = mBU in the presence of the test compound and K-10 tracer, y = mBU with K-10 tracer and vehicle control, and z = mBU in the absence of the K-10 tracer or test compound (Wells et al, [2020]).
# [7] = target: T2, CDK7-WT (Homo sapiens, UniProt P50613); assay: as above; type: binding; conditions: for % Occupacy: CDK7 WT, replicates N1-N3
# T2 construct: expressed in transfected cells; host or cells: HEK293
# Procedure: as §4, §5
# T1 sequence (P50613 whole entry D97N): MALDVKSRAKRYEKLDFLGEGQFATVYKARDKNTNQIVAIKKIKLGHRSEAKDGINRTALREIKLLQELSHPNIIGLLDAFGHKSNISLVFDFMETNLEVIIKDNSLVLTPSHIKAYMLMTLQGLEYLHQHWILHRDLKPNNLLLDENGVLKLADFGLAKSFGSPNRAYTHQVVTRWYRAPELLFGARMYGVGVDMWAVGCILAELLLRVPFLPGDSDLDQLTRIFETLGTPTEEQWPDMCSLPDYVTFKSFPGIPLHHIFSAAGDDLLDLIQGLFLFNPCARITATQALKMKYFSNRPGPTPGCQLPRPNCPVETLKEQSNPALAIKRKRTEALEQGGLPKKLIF
# T2 sequence (P50613 whole entry): as the sequence (P50613 whole entry D97N) above, with N97D counted along it
smiles,measurement,setting,value
CN(C)C/C=C/C(=O)Nc1ccc(C(=O)N[C@@]2(C)CCC[C@@H](Nc3ncc(Cl)c(-c4c[nH]c5ccccc45)n3)C2)nc1 [SY-1365],% Growth,"[1]; 22Rv1, Log10 Conc. (nM) 0.09",53.71% and 72.88%
same,% Growth,"[1]; 22Rv1, Log10 Conc. (nM) 0.69",19.90% and 19.70%
same,% Growth,"[1]; 22Rv1, Log10 Conc. (nM) 1.29",16.91% and 19.74%
same,% Growth,"[1]; 22Rv1, Log10 Conc. (nM) 1.89",-7.92% and -2.43%
same,% Growth,"[1]; 22Rv1, Log10 Conc. (nM) 2.49",-5.73% and -3.13%
same,% Growth,"[1]; 22Rv1, Log10 Conc. (nM) 3.10",1.12%
same,% Growth,"[1]; 22Rv1, Log10 Conc. (nM) 3.70",-11.26%
same,% Growth,"[1]; 22Rv1, Log10 Conc. (nM) -0.52",94.30% and 92.75%
same,% Growth,"[1]; 22Rv1, Log10 Conc. (nM) -1.12",97.77% and 104.48%
same,% Growth,"[1]; 22Rv1, Log10 Conc. (nM) -1.72",103.08%
same,% Growth,"[1]; 22Rv1, Log10 Conc. (nM) 0.09, 4 days, biological reps",64.96% and 59.63%
same,% Growth,"[1]; 22Rv1, Log10 Conc. (nM) 0.69, 4 days, biological reps",28.69% and 25.19%
same,% Growth,"[1]; 22Rv1, Log10 Conc. (nM) 1.29, 4 days, biological reps",21.21% and 16.89%
same,% Growth,"[1]; 22Rv1, Log10 Conc. (nM) 1.89, 4 days, biological reps",0.26% and -4.14%
same,% Growth,"[1]; 22Rv1, Log10 Conc. (nM) 2.49, 4 days, biological reps",1.87% and -4.53%
same,% Growth,"[1]; 22Rv1, Log10 Conc. (nM) 3.10, 4 days, biological reps",-0.83% and -4.41%
same,% Growth,"[1]; 22Rv1, Log10 Conc. (nM) 3.70, 4 days, biological reps",0.68% and -4.68%
same,% Growth,"[1]; 22Rv1, Log10 Conc. (nM) -0.52, 4 days, biological reps",89.73% and 90.72%
same,% Growth,"[1]; 22Rv1, Log10 Conc. (nM) -1.12, 4 days, biological reps",93.97% and 90.45%
same,IC50,"[2]; 4 days, SRB",0.89 nM
same,% Growth,"[2]; Log10 Conc. (nM) 3.70, 4 days",-12.18%
same,% Growth,"[2]; Log10 Conc. (nM) -0.52, 4 days",88.75% and 65.89% and 87.60% and 88.37%
same,% Growth,"[2]; Log10 Conc. (nM) -1.12, 4 days",97.02% and 94.10% and 95.64% and 94.95%
same,% Growth,"[2]; Log10 Conc. (nM) -1.72, 4 days",90.31% and 94.08% and 94.26%
same,Sensitivity in growth assays,[3]; 22Rv1-CDK7-D97N vs parental,remaining sensitive
same,% Growth,[3]; Log10 Conc. (nM) 0.09,48.76% and 39.48%
same,% Growth,[3]; Log10 Conc. (nM) 0.69,32.85% and 26.42%
same,% Growth,[3]; Log10 Conc. (nM) 1.29,16.40% and 13.77%
same,% Growth,[3]; Log10 Conc. (nM) 1.89,-9.18% and -1.73%
same,% Growth,[3]; Log10 Conc. (nM) 3.70,-12.72%
same,% Growth,[3]; Log10 Conc. (nM) -0.52,87.25% and 62.47%
same,% Growth,[3]; Log10 Conc. (nM) -1.12,95.17% and 93.47%
same,% Growth,[3]; Log10 Conc. (nM) -1.72,98.87%
same,% Growth,[4]; Log10 Conc. (nM) 0.09,56.73% and 37.69%
same,% Growth,[4]; Log10 Conc. (nM) 1.29,1.68% and -7.82%
same,% Growth,[4]; Log10 Conc. (nM) 2.49,-22.61% and -22.62%
same,% Growth,[4]; Log10 Conc. (nM) 3.70,-23.75%
same,% Growth,[4]; Log10 Conc. (nM) -0.52,84.52% and 77.18%
same,% Growth,[4]; Log10 Conc. (nM) -1.12,86.80% and 137.61%
same,% Growth,[4]; Log10 Conc. (nM) -1.72,105.02%
same,% Growth,[5]; Log10 Conc. (nM) 0.09,63.76% and 49.89%
same,% Growth,[5]; Log10 Conc. (nM) 0.69,29.39% and 16.32%
same,% Growth,[5]; Log10 Conc. (nM) 1.29,15.69% and 13.01%
same,% Growth,[5]; Log10 Conc. (nM) 1.89,-2.84% and -7.62%
same,% Growth,[5]; Log10 Conc. (nM) 2.49,-7.57% and -9.89%
same,% Growth,[5]; Log10 Conc. (nM) 3.10,-8.80% and -12.02%
same,% Growth,[5]; Log10 Conc. (nM) 3.70,-8.97%
same,% Growth,[5]; Log10 Conc. (nM) -0.52,95.67% and 71.20%
same,% Growth,[5]; Log10 Conc. (nM) -1.12,99.75% and 96.82%
same,% Growth,[5]; Log10 Conc. (nM) -1.72,90.05%
same,Sensitivity in growth assays,[5]; LNCaP-CDK7-D97N vs parental,remaining sensitive
same,EC50,"[6]; CDK7-D97N, K-10 0.5 µM, HEK293",31.3 nM
same,% Occupacy,[6]; Log10 Conc. (nM) 0.09,2.93% and 3.17% and -0.97%
same,% Occupacy,[6]; Log10 Conc. (nM) 0.69,10.17% and 10.16% and 4.41%
same,% Occupacy,[6]; Log10 Conc. (nM) 1.29,36.69% and 35.14% and 27.40%
same,% Occupacy,[6]; Log10 Conc. (nM) 1.89,86.86% and 82.26% and 69.03%
same,% Occupacy,[6]; Log10 Conc. (nM) 2.49,95.98% and 95.66% and 91.52%
same,% Occupacy,[6]; Log10 Conc. (nM) 3.10,98.50% and 98.01% and 96.95%
same,% Occupacy,[6]; Log10 Conc. (nM) 3.70,100.42% and 100.34% and 99.95%
same,% Occupacy,[6]; Log10 Conc. (nM) 4.30,97.72% and 96.80% and 96.75%
same,% Occupacy,[6]; Log10 Conc. (nM) -0.52,-0.36% and 0.88% and 0.71%
same,% Occupacy,[6]; Log10 Conc. (nM) -1.12,3.66% and 1.72% and -0.86%
same,% Occupacy,[6]; Log10 Conc. (nM) -1.72,3.68% and 0.83% and -1.37%
same,Difference in EC50 values for mutant and WT CDK7,[6]; NanoBRET,no significant difference
same,EC50,"[7]; CDK7-WT, K-10 0.5 µM, HEK293",29 nM
same,% Occupacy,[7]; Log10 Conc. (nM) 0.09,5.29% and 2.02% and 1.09%
same,% Occupacy,[7]; Log10 Conc. (nM) 0.69,14.34% and 11.55% and 9.36%
same,% Occupacy,[7]; Log10 Conc. (nM) 1.29,40.53% and 32.34% and 29.30%
same,% Occupacy,[7]; Log10 Conc. (nM) 1.89,74.64% and 88.34% and 86.64%
same,% Occupacy,[7]; Log10 Conc. (nM) 2.49,98.27% and 99.01% and 95.02%
same,% Occupacy,[7]; Log10 Conc. (nM) 3.10,99.51% and 100.88% and 97.39%
same,% Occupacy,[7]; Log10 Conc. (nM) 3.70,102.75% and 104.94% and 102.49%
same,% Occupacy,[7]; Log10 Conc. (nM) 4.30,86.99% and 86.89% and 86.73%
same,% Occupacy,[7]; Log10 Conc. (nM) -0.52,10.37% and -0.26% and 2.09%
same,% Occupacy,[7]; Log10 Conc. (nM) -1.12,9.68% and 0.78% and 5.84%
same,% Occupacy,[7]; Log10 Conc. (nM) -1.72,8.54% and -2.37% and 7.63%
